From article PMC8366681 (Cancer chemotherapy and pharmacology, 2013) come the findings set out here.

Molecules are shown by their SMILES.

The target in this data set is ABCB1 (Homo sapiens, UniProt P08183). The data set is classed as biochemical.
Sequence of ABCB1 (P08183 whole entry): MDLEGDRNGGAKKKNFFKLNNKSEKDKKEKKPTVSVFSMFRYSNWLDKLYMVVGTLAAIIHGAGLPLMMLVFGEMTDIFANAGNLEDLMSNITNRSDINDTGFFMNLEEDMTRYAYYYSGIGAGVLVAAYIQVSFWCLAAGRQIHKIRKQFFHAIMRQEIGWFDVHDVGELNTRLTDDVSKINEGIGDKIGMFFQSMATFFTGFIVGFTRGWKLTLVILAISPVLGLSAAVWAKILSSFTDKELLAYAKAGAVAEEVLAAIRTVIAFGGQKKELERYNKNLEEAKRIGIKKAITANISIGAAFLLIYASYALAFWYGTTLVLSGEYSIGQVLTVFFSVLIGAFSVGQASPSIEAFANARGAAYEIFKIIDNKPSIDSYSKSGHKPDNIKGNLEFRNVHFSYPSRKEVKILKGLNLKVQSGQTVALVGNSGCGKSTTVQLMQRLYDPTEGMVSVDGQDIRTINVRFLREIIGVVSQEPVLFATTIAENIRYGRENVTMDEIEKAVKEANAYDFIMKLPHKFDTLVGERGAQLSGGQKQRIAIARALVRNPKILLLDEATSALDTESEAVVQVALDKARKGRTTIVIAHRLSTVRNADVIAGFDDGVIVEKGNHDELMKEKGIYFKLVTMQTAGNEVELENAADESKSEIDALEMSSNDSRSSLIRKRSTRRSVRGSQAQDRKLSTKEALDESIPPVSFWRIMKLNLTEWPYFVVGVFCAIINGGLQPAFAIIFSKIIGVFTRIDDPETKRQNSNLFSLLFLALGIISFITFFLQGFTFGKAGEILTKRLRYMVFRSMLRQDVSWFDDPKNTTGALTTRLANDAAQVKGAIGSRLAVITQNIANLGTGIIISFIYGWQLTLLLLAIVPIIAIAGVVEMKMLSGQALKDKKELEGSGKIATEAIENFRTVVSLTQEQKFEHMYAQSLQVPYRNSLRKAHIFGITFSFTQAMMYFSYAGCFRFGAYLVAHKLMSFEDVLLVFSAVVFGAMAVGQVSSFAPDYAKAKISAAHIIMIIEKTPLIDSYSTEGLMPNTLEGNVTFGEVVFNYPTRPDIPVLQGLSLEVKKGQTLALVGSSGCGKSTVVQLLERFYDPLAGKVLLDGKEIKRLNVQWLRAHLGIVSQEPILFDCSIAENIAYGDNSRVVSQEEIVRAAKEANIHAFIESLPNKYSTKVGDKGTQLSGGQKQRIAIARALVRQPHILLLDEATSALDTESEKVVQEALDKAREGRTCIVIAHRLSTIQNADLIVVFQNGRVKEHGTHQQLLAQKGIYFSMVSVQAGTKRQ

Consider `CCN(CC)CCCCNc1ncc2cc(-c3cc(OC)cc(OC)c3)c(NC(=O)NC(C)(C)C)nc2n1` [PD173074], for which the “vanadate-sensitive ATPase stimulation in crude membranes of High-five cells expr” value was 2.5 to 5 µM.
